Experiment [1] is described as follows: Pig performance post weaning with LAM and FUC, Example 4. It counts as in vivo. From the text: (§1) One hundred and ninety two piglets were weaned at twenty four days of age, with an initial live weight of 6.4±0.785 Kg and assigned to one of four dietary treatments or 21 days post weaning. The dietary treatments consisted of (T1) basal diet, (T2) basal diet with 300 ppm LAM, (T3) basal diet with 236 ppm FUC, (T4) Basal diet with 300 ppm LAM and 236 ppm FUC. Diets were formulated to have identical concentrations of digestible energy (DE) (16 MJ/Kg) and ileal digestible lysine (14 g/Kg). All amino acid requirements were met relative to lysine (Close, 1994). Chromium III oxide was added to the diets for determination of nutrient digestibility. The LAM and FUC were derived from Laminaria hyperborea.
(§2) Piglets were housed in groups of 4 and offered feed twice daily. Water was supplied ad-libitum. Any pig displaying symptoms of illness was treated appropriately and recorded. Pigs were weighed on day 0 (day of weaning), 7, 14 and 21. Feed intake was monitored weekly. Fresh faecal samples were taken on day 10 and were analysed for E. coli and Lactobacilli concentrations. Faeces samples were collected from each pen on day 12-17 and were retained for chemical analysis. Fresh faecal samples were removed on day 14 and were frozen and retained for volatile fatty acid analysis. Fresh faecal samples were taken on day 17 for pH determination.

The next experiment concerns Escherichia coli. As to the kind of experiment: Faecal microbiology, Example 4. It counts as in vivo, pig. Conditions: LAM diets (300 ppm) v no LAM supplementation (7.84).
Source text: as §1, §2
A sample was serially diluted (1:10) in 9.0 ml aliquots of maximum recovery diluent (MRD, Oxoid, Basingstoke, UK), and spread plated (0.1 ml aliquots) onto selective agars. Lactobacillus spp. were isolated on de Man, Rogosa, Sharp agar (MRS, Oxoid) with overnight incubation at 37° C. in 5% CO2. The API 50 CHL (BioMerieux, France) kit was used to confirm suspect Lactobacilli spp. E. coli species were isolated on MacConkey agar (Oxoid), following aerobic incubation at 37° C. for 18-24 hours. Suspect colonies were confirmed with API 20E (BioMerieux, France).

Experiment [2] is described as follows: VFA analysis and digesta pH in ileum, caecum and colon, Example 5. It is filed as in vivo, pig. Conditions: for total VFAs: increasing LAM. The text has this:
21 pigs with an initial weight of 17.9±2.2 Kg were assigned to one of the 3 dietary treatments: (T1) control; (T2) basal diet+300 ppm LAM; (T3) basal diet+600 ppm LAM. Experimental feeding continued for 21 days ad libitum. Diets were formulated to have similar digestible energy (DE) (14.4 MJ/Kg) and ileal digestible lysine (12.5 g/Kg). Post-slaughter, digestive tract was removed by dissection and digesta was removed from the ileum. Each digesta sample was serially diluted in maximum recovery diluent (MRD, Oxoid, Basingstoke, UK), and spread plated onto selective agars. Bifidobacteria, Lactobacilli and Enterobacteria species were isolated according to the methods described by Pierce et al. (2005). Digesta samples used to measure VFA concentration were collected from the caecum and the same location in the ileum and colon. VFA analysis was performed using gas liquid chromatography (GLC) according to the method described by Pierce et al., (2005).

Another experiment deals with MUC12. As to the kind of experiment: Mucin gene expression in ileum and colon (qPCR), Example 5. Conditions: LAM supplementation. It is filed as in vivo, pig. How it is done: (§3) 21 pigs with an initial weight of 17.9±2.2 Kg were assigned to one of the 3 dietary treatments: (T1) control; (T2) basal diet+300 ppm LAM; (T3) basal diet+600 ppm LAM. Experimental feeding continued for 21 days ad libitum. Diets were formulated to have similar digestible energy (DE) (14.4 MJ/Kg) and ileal digestible lysine (12.5 g/Kg).
(§4) Ileal and colonic tissues was stabilised in RNAlater® solution and stored overnight at 4° C. The following day, RNAlater® was removed and samples were stored at −86° C. prior to RNA extraction.
(§5) Tissue samples for RNA extraction were removed from −86° C. and homogenised. 500 μl of lysis solution/2-ME was added to each sample and these were mechanically disrupted using one 5 mm stainless steel bead per sample. These were then placed in a Tissue Lyser (Qiagen) and lysates were homogenised for 3 mins and transferred to a GenElute Filtration Column (Sigma Aldrich) and RNA was extracted. 1 µg of total RNA was used for cDNA synthesis using oligo(dT)20 primer in a final reaction volume of 20 μl with Superscript™ III First-Strand synthesis system for reverse transcriptase-polymerase chain reaction (RT-PCR) (Invitrogen Life Technologies, Carlsbad, Calif.). At the last step of cDNA synthesis, treatment with E. coli RNase H (Invitrogen Corp.) was performed to digest the remaining RNA/mRNA template, resulting in the production of the single-stranded cDNA template for subsequent qRT-PCR reactions.
(§6) All porcine primers for the cytokine genes interferon gamma (IFN-γ), interleukin-1α (IL-1α), IL-6, IL-8, IL-10, IL-17, tumour necrosis factor (TNF-α), the mucin genes (MUCs 1, 2, 4, 5AC, 12, 13 and 20) and three reference genes, β-actin (ACTB), Glyceraldehyde-3-phosphate dehydrogenase (GAPDH) and Peptidylprolyl isomerase A (PPIA), were designed using Primer Express™ (PE Applied Biosystems, Foster City, Calif.) and synthesised by MWG Biotech (Milton Keynes, UK). These reference genes were previously validated for use in porcine tissue and qPCR was then carried out on the cDNA using the ABI PRISM 7900HT Fast sequence detection system for 96-well plates (Applied Biosystems, Foster City, Calif.). All samples were prepared in duplicate using SYBR Green Fast PCR Master Mix (Applied Biosystems, Foster City, Calif.), cDNA as template and specific primers for the genes selected. For each reaction 5 μl cDNA, 1.2 μl (forward and reverse primer mix, 5 μM), 10 μl Fast SYBR Green PCR Master Mix (PE Applied Biosystems, Foster City, Calif.) was added and made up to a final volume of 20 μl. The two step PCR program was as follows: 95° C. for 10 minutes for 1 cycle followed by 95° C. for 15 seconds and 60° C. for 1 minute for 40 cycles. The raw Ct values for the reference genes were converted to relative quantities using the formula Q=E ^ΔCt where E is the PCR efficiency of the assay and ^ΔCt is the value calculated for the difference between the lowest Ct value for each gene minus the Ct value of the sample in question. The relative quantities of the endogenous controls were then analysed for stability in geNorm (Vandesompele et al., 2002). The stability ‘M’ value generated by the geNorm application for the selected endogenous controls (ACTB, GAPDH and PPIA) indicated their suitability as endogenous controls for these intestinal samples. The geometric mean of the relative quantities for ACTB, GAPDH and PPIA (normalisation factor) was then calculated using geNorm. The relative quantities of each target gene were divided by the normalisation factor (obtained in geNorm) for that sample to give the final normalised relative expression.
(Quantitative PCR measures a nucleic acid by following its amplification.)

The next experiment relates to MUC13. Described as above. It counts as in vivo, pig. As to conditions: LAM supplementation. How it is done:
as §3, §4, §5, §6

The next experiment concerns MUC20. The description is as above. It is filed as in vivo, pig. Conditions: LAM supplementation. On the procedure:
as §3, §4, §5, §6

In the case of laminarin, the “Gain: Feed ratio” value in experiment [1] (days 7-14, LAM supplemented diets (300 ppm) v unsupplemented (0.569)) worked out at 0.763; in experiment [1] (entire experimental period, LAM supplemented diets (300 ppm) v unsupplemented (0.646)), 0.703. Moreover, the ADG in experiment [1] (days 7-14 post weaning, LAM supplemented diets (300 ppm) v diets with no LAM (0.266)) came to 0.344; in experiment [1] (entire experimental period, LAM supplemented diets (300 ppm) v no LAM (0.232)), 0.324. Also, in experiment [1] (weaned pigs, 21 days, LAM 300 ppm, FUC 236 ppm), the “average daily feed intake” value is “no effect”. The “faecal E. coli population” value in the experiment with Escherichia coli was 7.22. Further, in experiment [2] (any intestinal region), the “digesta pH” value is “no significant alteration”. Further, the “total VFAs” value in experiment [2] (caecum) is “significant increase”; in experiment [2] (ileum or colon), “no significant effects”. Also, the MUC12 expression entry in the experiment with MUC12 (colon) and with MUC12 (ileum) was “no effect” in each case. The MUC13 expression result with MUC13 (colon) and in the experiment with MUC13 (ileum) was “no effect” each time. Further, the MUC20 expression result in the experiment on MUC20 (colon) and in the experiment with MUC20 (ileum) was “no effect” in each case.

These data come from patent US9241951B2, “Of gastrointestinal health, immunity and performance by dietary intervention” (BIOATLANTIS LTD, priority 2009, dated 2016).
